# Test results as given in patent US11168093B2, “Thienopyridine inhibitors of RIPK2” (Celgene Corporation, priority 2018, dated 2021).
# Target: RIPK2 enzyme (Homo sapiens (Human), UniProt O43353)
# Assay: RIPK2 inhibition assay, TR-FRET LanthaScreen Tracer 199 screening assay
# Format: binding
# Details: 5 nM RIPK2 enzyme, Tracer 199 at 50 nM, Eu-anti-His Antibody at 2 nM, 1 hour incubation
# Protocol: All data was collected using a standard TR-FRET screening assay: LanthaScreen Tracer 199 at 50 nM, Eu-anti-His Antibody at 2 nM, 5 nM RIPK2 enzyme, and 1× Kinase Reaction Buffer. There was a 1 hour incubation prior to read. TR-FRET signal of the interaction (340Ex/665Em/615Em) was read at room temperature with standard setting. Background was subtracted of wells containing no enzyme. Percent inhibition was based on uninhibited controls log (inhibitor) vs. response. Variable slope equation was used with no constraints: Log Y=Bottom+(Top−Bottom)/(1+10^((Log IC50−X)*Hill Slope)).
# The compound numbers correspond to the compound numbers above.
# Sequence of RIPK2 enzyme (O43353 whole entry): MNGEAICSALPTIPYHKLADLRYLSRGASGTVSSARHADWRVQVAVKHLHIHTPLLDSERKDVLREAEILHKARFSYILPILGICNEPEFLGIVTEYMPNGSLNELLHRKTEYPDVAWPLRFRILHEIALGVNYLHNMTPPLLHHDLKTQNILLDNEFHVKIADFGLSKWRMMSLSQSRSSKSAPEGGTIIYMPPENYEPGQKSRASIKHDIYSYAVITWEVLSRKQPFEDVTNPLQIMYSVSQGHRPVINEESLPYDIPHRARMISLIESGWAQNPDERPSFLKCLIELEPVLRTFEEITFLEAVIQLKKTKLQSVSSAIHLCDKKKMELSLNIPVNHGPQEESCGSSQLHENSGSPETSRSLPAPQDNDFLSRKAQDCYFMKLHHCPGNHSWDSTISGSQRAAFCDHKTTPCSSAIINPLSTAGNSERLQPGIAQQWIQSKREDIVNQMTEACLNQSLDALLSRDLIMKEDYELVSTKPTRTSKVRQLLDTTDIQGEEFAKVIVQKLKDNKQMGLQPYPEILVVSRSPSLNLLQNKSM
row,Structure (SMILES),IC50
1,"CN1CCC(c2cc3c(Nc4ccc5scnc5c4)ccnc3s2)C1(C)C (stereo not drawn) [Example 35, N-(2-(1,2,2-trimethylpyrrolidin-3-yl)thieno[2,3-b]pyridin-4-yl)benzo[d]thiazol-5-amine]",10 to 20 nM
2,"COCCN1CCC=C(c2cc3c(Nc4ccc5scnc5c4)ccnc3s2)[C@@H]1C [Example 12b, N-(2-(1-(2-methoxyethyl)-2-methyl-1,2,5,6-tetrahydropyridin-3-yl)thieno[2,3-b]pyridin-4-yl)benzo[d]thiazol-5-amine]",≤ 10 nM
3,"C[C@@H]1NCCC[C@H]1c1cc2c(Nc3ccc4scnc4c3F)ccnc2s1 [Example 57a, 4-fluoro-N-(2-((2S,3R)-2-methylpiperidin-3-yl)thieno-[2,3-b]pyridin-4-yl)benzo[d]thiazol-5-amine]",10 to 20 nM
4,"COCCN1CCC=C(c2cc3c(Nc4ccc5scnc5c4)ccnc3s2)[C@H]1C [Example 12a, N-(2-(1-(2-methoxyethyl)-2-methyl-1,2,5,6-tetrahydropyridin-3-yl)thieno[2,3-b]pyridin-4-yl)benzo[d]thiazol-5-amine]",≤ 10 nM
5,"C[C@H]1[C@H](c2cc3c(Nc4ccc5scnc5c4F)ccnc3s2)CCCN1C [Example 59, N-(2-((2S,3R)-1,2-dimethylpiperidin-3-yl)thieno[2,3-b]pyridin-4-yl)-4-fluorobenzo[d]thiazol-5-amine]",≤ 10 nM
6,"CCN1CCC[C@H](c2cc3c(Nc4ccc5scnc5c4F)ccnc3s2)[C@@H]1C [Example 65, N-(2-((2S,3S)-1-ethyl-2-methylpiperidin-3-yl)thieno[2,3-b]pyridin-4-yl)-4-fluorobenzo[d]thiazol-5-amine]",≤ 10 nM
7,"CCN1CCC=C(c2cc3c(Nc4cc5ncsc5cc4F)ccnc3s2)[C@H]1C [Example 52a, N-(2-(1-ethyl-2-methyl-1,2,5,6-tetrahydropyridin-3-yl)thieno[2,3-b]pyridin-4-yl)-6-fluorobenzo[d]thiazol-5-amine]",10 to 20 nM
8,"C[C@@H]1NCCC=C1c1cc2c(Nc3cc4ncsc4cc3F)ccnc2s1 [Example 49b, 6-fluoro-N-(2-(2-methyl-1,2,5,6-tetrahydropyridin-3-yl)thieno[2,3-b]pyridin-4-yl)benzo[d]thiazol-5-amine]",≤ 10 nM
9,"CCC1C(c2cc3c(Nc4ccc5scnc5c4)ccnc3s2)CCCN1C (stereo not drawn) [Example 23a, N-(2-(2-ethyl-1-methylpiperidin-3-yl)thieno[2,3-b]pyridin-4-yl)benzo[d]thiazol-5-amine]",≤ 10 nM
10,"CC(C)N1CCC=C(c2cc3c(Nc4ccc5scnc5c4)ccnc3s2)C1C (stereo not drawn) [Example 7, N-(2-(1-isopropyl-2-methyl-1,2,5,6-tetrahydropyridin-3-yl)thieno[2,3-b]pyridin-4-yl)benzo[d]thiazol-5-amine]",≤ 10 nM
11,"C[C@H]1NCCC=C1c1cc2c(Nc3c(F)cc4scnc4c3F)ccnc2s1 [Example 66a, (R)-4,6-difluoro-N-(2-(2-methyl-1,2,5,6-tetrahydropyridin-3-yl)thieno[2,3-b]pyridin-4-yl)benzo[d]thiazol-5-amine]",≤ 10 nM
12,"C[C@H]1NCCC=C1c1cc2c(Nc3cc4ncsc4cc3F)ccnc2s1 [Example 49a, 6-fluoro-N-(2-(2-methyl-1,2,5,6-tetrahydropyridin-3-yl)thieno[2,3-b]pyridin-4-yl)benzo[d]thiazol-5-amine]",10 to 20 nM
13,"CC1C(c2cc3c(Nc4ccc5scnc5c4)ccnc3s2)CCCN1CCF (stereo not drawn) [Example 14, N-(2-(1-(2-fluoroethyl)-2-methylpiperidin-3-yl)thieno[2,3-b]pyridin-4-yl)benzo[d]thiazol-5-amine]",≤ 10 nM
14,"CC1(C)NCC=C1c1cc2c(Nc3ccc4scnc4c3)ccnc2s1 [Example 32, N-(2-(2,2-dimethyl-2,5-dihydro-1H-pyrrol-3-yl)thieno[2,3-b]pyridin-4-yl)benzo[d]thiazol-5-amine]",≤ 10 nM
15,"CC(C)N1CCCC(c2cc3c(Nc4ccc5scnc5c4)ccnc3s2)C1C (stereo not drawn) [Example 8, N-(2-(1-isopropyl-2-methylpiperidin-3-yl)thieno[2,3-b]pyridin-4-yl)benzo[d]thiazol-5-amine]",≤ 10 nM
16,"CCN1CCC(c2cc3c(Nc4ccc5scnc5c4)ccnc3s2)C1(C)C (stereo not drawn) [Example 37, N-(2-(1-ethyl-2,2-dimethylpyrrolidin-3-yl)thieno[2,3-b]pyridin-4-yl)benzo[d]thiazol-5-amine]",≤ 10 nM
17,"C1=C(c2cc3c(Nc4ccc5scnc5c4)ccnc3s2)C2(CCOC2)NC1 (stereo not drawn) [Example 40, N-(2-(7-oxa-1-azaspiro[4.4]non-3-en-4-yl)thieno[2,3-b]pyridin-4-yl)benzo[d]thiazol-5-amine]",≤ 10 nM
18,"CC1NCCCC1c1cc2c(Nc3ccc4scnc4c3)ccnc2s1 (stereo not drawn) [Example 3, N-(2-(2-methylpiperidin-3-yl)thieno[2,3-b]pyridin-4-yl)benzo[d]thiazol-5-amine]",≤ 10 nM

# Second part, the compound after the results:
row,IC50,Structure (SMILES)
1,20 to 50 nM,"CC1C(c2cc3c(Nc4c(F)cc5scnc5c4F)c(F)cnc3s2)CCCN1C (single isomer, unassigned) [Example 127a]"
2,10 to 20 nM,"CC(=O)N1CCCC(c2cc3c(Nc4ccc5scnc5c4)ccnc3s2)CC1 (stereo not drawn) [Example 111, 1-(4-(4-(benzo[d]thiazol-5-ylamino)thieno[2,3-b]pyridin-2-yl)azepan-1-yl)ethan-1-one]"
3,≤ 10 nM,"CC1NCCCC1c1cc2c(Nc3ccc4scnc4c3F)c(F)cnc2s1 (single isomer, unassigned) [Example 124c, 4-fluoro-N-(5-fluoro-2-(2-methylpiperidin-3-yl)thieno[2,3-b]pyridin-4-yl)benzo[d]thiazol-5-amine]"
4,≥ 50 nM,"CC1NCCCC1c1cc2c(Nc3ccc4scnc4c3)c(F)cnc2s1 (single isomer, unassigned) [Example 119d, N-(5-fluoro-2-(2-methylpiperidin-3-yl)thieno[2,3-b]pyridin-4-yl)benzo[d]thiazol-5-amine]"
5,≤ 10 nM,"CN1CCC=C(c2cc3c(Nc4ccc5scnc5c4)ccnc3s2)CC1 [Example 106, N-(2-(1-methyl-2,3,6,7-tetrahydro-1H-azepin-4-yl)thieno[2,3-b]pyridin-4-yl)benzo[d]thiazol-5-amine]"
6,10 to 20 nM,"CC1C(c2cc3c(Nc4ccc5scnc5c4F)c(F)cnc3s2)CCCN1C (single isomer, unassigned) [Example 125b, N-(2-(1,2-dimethylpiperidin-3-yl)-5-fluorothieno[2,3-b]pyridin-4-yl)-4-fluorobenzo[d]thiazol-5-amine]"
7,≥ 50 nM,"CCN1CCC(c2cc3c(Nc4c(F)cc5scnc5c4F)ccnc3s2)C12CCOCC2 (stereo not drawn) [Example 104, N-(2-(1-ethyl-8-oxa-1-azaspiro[4.5]decan-4-yl)thieno[2,3-b]pyridin-4-yl)-4,6-difluorobenzo[d]thiazol-5-amine]"
8,≤ 10 nM,"CC1C(c2cc3c(Nc4ccc5scnc5c4F)ccnc3s2)CCN1CCO (stereo not drawn) [Example 89, 2-(3-(4-((4-fluorobenzo[d]thiazol-5-yl)amino)thieno[2,3-b]pyridin-2-yl)-2-methylpyrrolidin-1-yl)ethan-1-ol]"
9,20 to 50 nM,"CCN1CCC(c2cc3c(Nc4c(F)cc5scnc5c4F)ccnc3s2)C12CCOC2 (stereo not drawn) [Example 101, N-(2-(1-ethyl-7-oxa-1-azaspiro[4.4]nonan-4-yl)thieno[2,3-b]pyridin-4-yl)-4,6-difluorobenzo[d]thiazol-5-amine]"
10,≤ 10 nM,"CC1(C)C(c2cc3c(Nc4ccc5scnc5c4F)ccnc3s2)CCN1CCO (stereo not drawn) [Example 92, 2-(3-(4-((4-fluorobenzo[d]thiazol-5-yl)amino)thieno[2,3-b]pyridin-2-yl)-2,2-dimethylpyrrolidin-1-yl)ethan-1-ol]"
11,≤ 10 nM,"CC1(C)NCCC1c1cc2c(Nc3c(F)cc4scnc4c3F)ccnc2s1 (stereo not drawn) [Example 96, N-(2-(2,2-dimethylpyrrolidin-3-yl)thieno[2,3-b]pyridin-4-yl)-4,6-difluorobenzo[d]thiazol-5-amine]"
12,≤ 10 nM,"CC(=O)N1CCCC=C(c2cc3c(Nc4ccc5scnc5c4)ccnc3s2)C1 [Example 114, 1-(6-(4-(benzo[d]thiazol-5-ylamino)thieno[2,3-b]pyridin-2-yl)-2,3,4,7-tetrahydro-1H-azepin-1-yl)ethan-1-one]"
13,≤ 10 nM,"c1cc(Nc2ccc3scnc3c2)c2cc(C3CCCNCC3)sc2n1 (stereo not drawn) [Example 108, N-(2-(azepan-4-yl)thieno[2,3-b]pyridin-4-yl)benzo[d]thiazol-5-amine]"
14,10 to 20 nM,"CCN1CCC(c2cc3c(Nc4ccc5scnc5c4F)ccnc3s2)C1(C)C (stereo not drawn) [Example 91, N-(2-(1-ethyl-2,2-dimethylpyrrolidin-3-yl)thieno[2,3-b]pyridin-4-yl)-4-fluorobenzo[d]thiazol-5-amine]"
15,20 to 50 nM,"CN1CCC(c2cc3c(Nc4c(F)cc5scnc5c4F)ccnc3s2)C12CCOCC2 (stereo not drawn) [Example 103, 4,6-difluoro-N-(2-(1-methyl-8-oxa-1-azaspiro[4.5]decan-4-yl)thieno[2,3-b]pyridin-4-yl)benzo[d]thiazol-5-amine]"
16,≤ 10 nM,"C[C@@H]1[C@H](c2cc3c(Nc4c(F)cc5scnc5c4F)ccnc3s2)CCCN1C [Example 70b, N-(2-((2R,3R)-1,2-dimethylpiperidin-3-yl)thieno[2,3-b]pyridin-4-yl)-4,6-difluorobenzo[d]-thiazol-5-amine]"
17,20 to 50 nM,"CC1(C)C(c2cc3c(Nc4cc5ncsc5cc4F)ccnc3s2)CCN1CCO (stereo not drawn) [Example 80, 2-(3-(4-((6-fluorobenzo[d]thiazol-5-yl)amino)thieno[2,3-b]pyridin-2-yl)-2,2-dimethyl-pyrrolidin-1-yl)ethan-1-ol]"
18,≤ 10 nM,"CC1NCCC1c1cc2c(Nc3cc4ncsc4cc3F)ccnc2s1 (stereo not drawn) [Example 75, 6-fluoro-N-(2-(2-methylpyrrolidin-3-yl)thieno[2,3-b]pyridin-4-yl)benzo[d]thiazol-5-amine]"
